The record followed here is patent US20090291462A1, “Detection or Quantification of Aggrecan and its Fragments” (Immunodiagnostic Systems Nordic A/S, priority 2005, published 2009).

Format in all cases: cell-based
Assay [1] concerns Bovine articular cartilage explants. Kind of assay: ^342FFGVG-G2 release into supernatants of bovine articular cartilage explants (AF-28/F78 sandwich assay). The settings on record: FIG. 5; for release of ^342FFGVG-G2 on cytokine stimulation: OSM and TNF-α together, after day 12. How it is done:
Streptavidin plates were incubated for 1 hour, 300 RPM, 20° C. with 100 μl 1500 ng/ml biotinylated AF-28 monoclonal antibody against the epitope ^342FFGVG-G2. Antibody dilutions were made in PBS-BTB buffer. After incubating the plates for 1 hour, plates were washed 5 times with washing buffer (0.15 mol/l NaCl, 0.05% (v/v) Tween 20). Subsequently 50 μl standards (MMP-13 digested purified porcine aggrecan 47-3000 ng/ml or pre-diluted explant supernatants in PBS-BTB were added, and the plates were incubated for 1 hour, 300 RPM, 20° C. After the incubation period, the plates were washed 5 times as described previously, and 500 ng/ml horseradish Peroxidase (POD)-labelled F78 antibody was added. After incubating for 1 hour, 300 RPM, 20° C., the plates were washed 5 times, 100 μl of TMB substrate was added, and the plates were incubated for 15 minutes, 300 RPM, 20° C. in the dark before 150 μl 0.18 M H2SO4 was added. The absorbance was measured immediately after at 450 nm.
(§1) The G2 and the ^342FFGVG-G2 test described above were evaluated using conditioned medium from cartilage explants. Bovine articular cartilage was obtained from heifer stifle joints. Pieces of cartilage (16±4 mg) were placed in 96 well plates and incubated at 37° C. with 5% CO2 and shaking (50 rpm). Serum-free D-MEM medium with or without the cytokines oncostatin M and tumour necrosis factor α (TNFα) or the MMP inhibitor GM6001 was used. As negative control, cartilage was placed in chryo-tubes, frozen in liquid N2, and thawed at 37° C. in water-bath for three repeated freeze-thaw cycles. The explants culture medium was replaced every 3rd day, and supernatants were stored at −20° C. until further analysis.

Assay [2] has the same test system. Kind of assay: CS846 release into supernatants of bovine articular cartilage explants (IBEX CS846 competitive ELISA kit). The settings on record: FIG. 6; for release of CS846 on cytokine stimulation: OSM and TNFα together. Here is the method: as §1
The supernatants evaluated above was also measured for CS846 (IBEX CS846 competitive ELISA kit).
On the technique in general: ELISA stands for enzyme-linked immunosorbent assay.

Assay [3] has the same test system. Kind of assay: G2 release into supernatants of bovine articular cartilage explants (F78 sandwich assay). To be noted: FIG. 5; for release of G2 on cytokine stimulation: OSM and TNF-α together, decreases after day 5, background after day 12. Here is the method:
A sandwich assay was developed using monoclonal antibodies as described above. Streptavidin plates were incubated for 1 hour, 300 RPM, 20° C. with 100 μl 600 ng/ml biotinylated F78 monoclonal antibody against the G2 domain of aggrecan.
After incubating the plates for 1 hour, plates were washed 5 times with washing buffer (0.15 mol/l NaCl, 0.05% (v/v) Tween 20). Subsequently 100 μl standards (purified bovine aggrecan 0.05 ng/ml-10 ng/ml, or pre-diluted explant supernatants in PBS-BTB were added, and the plates were incubated for 1 hour, 300 RPM, 20° C. After the incubation period, the plates were washed 5 times as described previously, and 500 ng/ml horseradish Peroxidase (POD)-labelled F78 antibody was added. After incubating for 1 hour, 300 RPM, 20° C., the plate was washed 5 times, and 100 μl of TMB substrate was added, and the plate was incubated for 15 minutes, 300 RPM, 20° C. in the dark before 150 μl 0.18 M H2SO4 was added. The absorbance was measured immediately at 450 nm.
as §1

For the molecule tumour necrosis factor α [TNF-α], in assay [1], the “release of ^342FFGVG-G2 on cytokine stimulation” value is “stimulate an increase”. Besides, in assay [2], the “release of CS846 on cytokine stimulation” value is “do not stimulate release”. The “release of G2 on cytokine stimulation” value in assay [3] is given as “initial elevation”.
On to `CNC(=O)[C@H](Cc1c[nH]c2ccccc12)NC(=O)[C@@H](CC(=O)NO)CC(C)C` [GM6001], for which the “release of ^342FFGVG-G2 in the presence of the MMP inhibitor” value in assay [1] (explants treated with OSM and TNF-α concomitantly with GM6001) is reported as “completely abrogated”. In addition, the “CS846 release during inhibition of MMP activity” value in assay [2] (explants with GM6001) was “strong, initial elevation”. The “release of G2 on addition of the MMP inhibitor” value in assay [3] (explants treated with OSM and TNF-α plus GM6001) was “did not inhibit”.

B1: oncostatin M (protein, UniProt P13725 26-221, looked up)
Oncostatin-M: AAIGSCSKEYRVLLGQLQKQTDLMQDTSRLLDPYIRIQGLDVPKLREHCRERPGAFPSEETLRGLGRRGFLQTLNATLGCVLHRLADLEQRLPKAQDLERSGLNIEDLEKLQMARPNILGLRNNIYCMAQLLDNSDTAEPTKAGRGASQPPTPTPASDAFQRKLEGCRFLHGYHRFMHSVGRVFSKWGESPNRSRR
notes: cytokine oncostatin M used to stimulate cartilage explants
Regarding B1, in assay [1], the “release of ^342FFGVG-G2 on cytokine stimulation” value is on record as “stimulate an increase”. Further, the “release of CS846 on cytokine stimulation” value in assay [2] is “do not stimulate release”. In addition, the “release of G2 on cytokine stimulation” value in assay [3] is “initial elevation”.
